Results taken from ChEMBL document CHEMBL1201862, “PubChem BioAssay data set” (2004).
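Values below derive from 48-hour exposures of cells grown in 96-well plates, with endpoints linearly interpolated between the two concentrations bracketing the appropriate inhibition level. GI50 is the concentration that inhibits growth by half.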 Active and inactive are the calls of the source. Rule as the data show it: active = GI50 up to about 1.1 µM and inactive = higher.

Tests used:
Assay in all cases: inhibition of tumour cell growth, NCI panel, 48 h
OVCAR-4 = test system: OVCAR-4
HCT-116 = test system: HCT-116
NCI-H226 = test system: NCI-H226
RPMI-8226 = test system: RPMI-8226
COLO 205 = test system: COLO 205
MCF7 = test system: MCF7
OVCAR-5 = test system: OVCAR-5
OVCAR-3 = test system: OVCAR-3
UACC-257 = test system: UACC-257
DU-145 = test system: DU-145
SR = test system: SR
NCI/ADR-RES = test system: NCI/ADR-RES
KM12 = test system: KM12
CCRF-CEM = test system: CCRF-CEM
SF-539 = test system: SF-539
HOP-92 = test system: HOP-92
SW-620 = test system: SW-620
K562 = test system: K562
SN12C = test system: SN12C
SK-MEL-2 = test system: SK-MEL-2

SMILES	GI50 (OVCAR-4)	GI50 (HCT-116)	GI50 (NCI-H226)	GI50 (RPMI-8226)	GI50 (COLO 205)	GI50 (MCF7)	GI50 (OVCAR-5)	GI50 (OVCAR-3)	GI50 (UACC-257)	GI50 (DU-145)	GI50 (SR)	GI50 (NCI/ADR-RES)	GI50 (KM12)	GI50 (CCRF-CEM)	GI50 (SF-539)	GI50 (HOP-92)	GI50 (SW-620)	GI50 (K562)	GI50 (SN12C)	GI50 (SK-MEL-2)
NCCc1c[nH]c2ccc(OC(=O)C(=O)O)cc12	> 100 µM (inactive)	> 100 µM (inactive)	> 100 µM (inactive)	> 100 µM (inactive)	> 100 µM (inactive)	> 100 µM (inactive)	> 100 µM (inactive)	> 100 µM (inactive)	> 100 µM (inactive)	> 100 µM (inactive)	> 100 µM (inactive)	> 100 µM (inactive)	> 100 µM (inactive)	> 100 µM (inactive)	> 100 µM (inactive)	> 100 µM (inactive)	> 100 µM (inactive)	> 100 µM (inactive)	> 100 µM (inactive)	> 100 µM (inactive)
CC1C(c2ccc3c(c2)OCO3)c2cc3c(cc2OC1N1CCOCC1)OCO3 (stereo not given)	28.8 µM (inactive)	16 µM (inactive)	22 µM (inactive)	21 µM (inactive)	21.1 µM (inactive)	20.8 µM (inactive)	46.2 µM (inactive)	20 µM (inactive)	35.4 µM (inactive)	27.8 µM (inactive)	10.6 µM (inactive)	15.8 µM (inactive)	20.5 µM (inactive)	19 µM (inactive)	18.3 µM (inactive)	16.5 µM (inactive)	25.9 µM (inactive)	7.41 µM (inactive)	33.1 µM (inactive)	19.9 µM (inactive)
COc1cc(C2c3cc4c(cc3OC(N3CCCC3)C2C)OCO4)cc(OC)c1OC (stereo not given)	2.31 µM (inactive)	0.481 µM (active)	0.433 µM (active)	1.08 µM (active)	0.433 µM (active)	0.296 µM (active)	1.09 µM (active)	0.221 µM (active)	1.07 µM (active)	0.571 µM (active)	0.32 µM (active)	0.316 µM (active)	0.322 µM (active)	0.502 µM (active)	0.246 µM (active)	0.973 µM (active)	0.366 µM (active)	0.361 µM (active)	0.757 µM (active)	0.394 µM (active)
CC1(c2ccccc2)N=c2[nH]cnc2=C(C(N)=O)N1 (stereo not given)	> 100 µM (inactive)	> 100 µM (inactive)	> 100 µM (inactive)	> 100 µM (inactive)	> 100 µM (inactive)	> 100 µM (inactive)	> 100 µM (inactive)	> 100 µM (inactive)	> 100 µM (inactive)	> 100 µM (inactive)	> 100 µM (inactive)	> 100 µM (inactive)	> 100 µM (inactive)	> 100 µM (inactive)	> 100 µM (inactive)	> 100 µM (inactive)	> 100 µM (inactive)	> 100 µM (inactive)	> 100 µM (inactive)	> 100 µM (inactive)
CCCCCCCCCCCCC(=O)OC(c1cnco1)c1nc(C(O)CC(O)C(O)C(C)O)co1 (stereo not given)	1.3 µM (inactive)	0.157 µM (active)	9.18 µM (inactive)	0.273 µM (active)	0.273 µM (active)	0.454 µM (active)	11.6 µM (inactive)	2.85 µM (inactive)	0.755 µM (active)	> 10 µM (inactive)	< 0.0407 µM (active)	> 10 µM (inactive)	0.766 µM (active)	0.284 µM (active)	0.942 µM (active)	1.34 µM (inactive)	0.114 µM (active)	0.21 µM (active)	1.78 µM (inactive)	0.63 µM (active)
CN(C)CCCNc1ccc([N+](=O)[O-])c2nc3ccccc3c(N)c12	0.169 µM (active)	0.124 µM (active)	5.14 µM (inactive)	0.266 µM (active)	0.243 µM (active)	0.459 µM (active)	2.49 µM (inactive)	0.63 µM (active)	1.63 µM (inactive)	0.308 µM (active)	0.23 µM (active)	0.397 µM (active)	0.436 µM (active)	0.243 µM (active)	0.449 µM (active)	0.516 µM (active)	0.22 µM (active)	0.312 µM (active)	0.771 µM (active)	1.38 µM (inactive)
CCC(C)NC(=S)N/N=C(\C)c1ccccn1 (stereo not given)	1.31 µM (inactive)	< 0.01 µM (active)	0.102 µM (active)	< 0.01 µM (active)	< 0.01 µM (active)	< 0.01 µM (active)	0.0991 µM (active)	< 0.01 µM (active)	< 0.01 µM (active)	1.28 µM (inactive)	< 0.01 µM (active)	< 0.01 µM (active)	0.156 µM (active)	< 0.01 µM (active)	0.906 µM (active)	0.14 µM (active)	< 0.0132 µM (active)	< 0.01 µM (active)	0.893 µM (active)	1.27 µM (inactive)
CC(NNC(=O)c1cc[n+]([BH2-]C#N)cc1)c1cccc(C(F)(F)F)c1 (stereo not given)	> 100 µM (inactive)	82 µM (inactive)	> 100 µM (inactive)	65.2 µM (inactive)	> 100 µM (inactive)	56.2 µM (inactive)	> 100 µM (inactive)	89.3 µM (inactive)	68.2 µM (inactive)	> 100 µM (inactive)	52.1 µM (inactive)	> 100 µM (inactive)	> 100 µM (inactive)	> 100 µM (inactive)	> 100 µM (inactive)	> 100 µM (inactive)	> 100 µM (inactive)	47.8 µM (inactive)	> 100 µM (inactive)	> 100 µM (inactive)
